Test results published in patent US7723023B2, “Use of intrinsic reporters of cell signaling for high content drug profiling and toxicity screening” (Mount Sinai School of Medicine, priority 2001, dated 2010).
Where “and” joins values, the source holds several entries; their conditions need not be identical. Equal entries are not always repeated.

Tested on: GnRHR-expressing LβT2 gonadotrope cell line
Test: Focused cDNA microarray analysis (FMA) of genes regulated by GnRH in LβT2 cells
Type: cell-based, mouse
Description: Cell Culture and Sample Preparation: LβT2 cells were obtained and maintained at 37° C. in 5% CO2 in humidified air in DMEM (Mediatech) containing 10% fetal bovine serum (Gemini). For experiments. 40-50×10^6 cells were seeded in 15 cm dishes. The medium was replaced 21 hours later with DMEM containing 25 mM HEPES (Mediatech) and glutamine. […] The incubation was stopped by aspirating the incubation medium and adding 10 ml of lysis buffer (4M guanidinium thiocyanate, 25 mM sodium citrate, pH 7.0, 0.5% N-lauroyl-sarcosine, and 0.1 M 2-mercaptoethanol). Total RNA was isolated according to the method of Chomczynski and Sacchi (1987) supra. Approximately 400 μg total RNA was obtained from each plate.
Microarray Development: The 956 clones were selected from an NIA 15K library (Tanaka et al. (2000) Proc. Natl. Acad. Sci. USA 97:9127-9132) or purchased from Research Genetics. The gene selection was partially based on literature searches. A large number of genes known to be induced at early time points in other experimental systems were included as well as 67 putative “housekeeping” genes. Plasmids were purified using the Qiaprep 96 Turbo Miniprep kit. Following insert amplification by PCR, products were confirmed by agarose gel electrophoresis and purified with Qiaquick 96 kit (Qiagen). The product was dried, dissolved in 18 μl H2O. 50% DMSO or 3×SSC and spotted (3 hits/feature, 3 features/gene) with a GMS 417 Arrayer (Affymetrix) on CMT-GAPS coated glass slides (Corning). DNA was fixed either by incubating the slide 3.5 hours at 40° C. followed by 10 min at 100° C. or for 2 hours at 85° C. or by UV crosslinking with 90 mJ (Stratalinker, Stratagene). Arrays were stored light-protected at room temperature until use. A Cy5-labeled oligomer complementary to one of the amplification primers was designed to test printing and attachment efficiency (5′-CGTTTTACAACGTCGTGACTGGG-3′) (SEQ ID NO:1). 12% of the cDNAs on the array were confirmed by sequencing, including randomly selected clones on each 96-well plate and all genes that were identified as regulated.
RNA Labeling and Hybridization. 20 μg of total RNA from each sample was labeled with either Cy3 or Cy5 using the Atlas indirect labeling kit (Clontech) as indicated by the manufacturer. Following array prehybridization in 6×SSC, 0.5% SDS, 1% BSA at 42° C. for 45 min, the probe was denatured and hybridized in 24 μl 50% formamid, 6×SSC, 0.5% SDS. 5×Denhardt's with 2.4 μg salmon sperm DNA, 10 μg poly dA at 42° C. (room temperature for test oligomer hybridization) for 16 hours. Following 10 min washes in 0.1×SSC, 0.1% SDS, and twice in 0.1×SSC the slide was scanned using the GMS 418 Scanner (Affymetrix).
Data Analysis. […] The median background-subtracted feature intensity was utilized for further analysis. Overall differences in the signal intensity of the two wavelengths measured on each slide (λ=532 nm and λ=635 nm) were corrected using the locally linear robust scatterplot smoother implemented in the loess function in S Plus Professional (Insightful Corporation). Predictors were generated using a symmetric distribution, span=0.75 (Venables and Ripley (1999) Modern Applied Statistics with S-Plus. Spring, N.Y. Measurement precision was estimated by determining the median coefficient of variation within slides for each gene:
[formula] Genes were selected according to the following algorithm (i) ±fold-change of >1.3; (ii) |t|>3; (iii) signal intensity in at least one channel >1% of the median signal intensity value; (iv) criteria i-iii observed in at least 2 of 3 experiments.
Microarray Identification of Genes Activated by GnRH is LβT2 Cells. The response to GnRH was studied in the GnRHR-expressing LβT2 gonadotrope cell line (Turgeon et al. (1996) Mol Endocrinol. 10:439-450). Three separate experiments comparing the effects of 1 hour exposure to GnRH or vehicle were performed. […]

[1] = 100 nM GnRH vs vehicle, 1 hour, LβT2 cells
[2] = two clones spotted in different locations on the arrays, 100 nM GnRH, 1 hour

gonadotropin releasing hormone [GnRH]
1κB fold-change, Microarray (n = 3) [1]: 1.7 ± 0.2 fold
Egr1 fold-change, Microarray (n = 3) [1]: 12.9 ± 3.8 fold
Egr2 fold-change, Microarray (n = 3) [1]: 1.5 ± 0.2 fold
Gem fold-change, Microarray (n = 3) [1]: 1.7 ± 0.2 fold
HSP30 fold-change, Microarray (n = 3) [1]: 1.3 ± 0.2 fold
Klf4 fold-change, Microarray (n = 3) [1]: 1.7 ± 0.3 fold
Klf-like EST fold-change, Microarray (n = 3) [1]: 2.3 ± 0.3 fold
LRG21 fold-change, Microarray (n = 3) [1]: 31.2 ± 16.6 fold
MKP1/3CH134 fold-change, Microarray (n = 3) [1]: 1.4 ± 0.1 fold
NMDMC fold-change, Microarray (n = 3) [1]: 1.4 ± 0.3 fold
Nr4a1/nur77 fold-change, Microarray (n = 3) [1]: 5.9 ± 1.5 fold
Nrf2 fold-change, Microarray (n = 3) [1]: 1.3 ± 0.2 fold
PRL1 fold-change, Microarray (n = 3) [1]: 2.0 ± 0.4 fold
Period1 fold-change, Microarray (n = 3) [1]: 2.1 ± 0.1 fold
Rgs2 fold-change, Microarray (n = 3) [1]: 4.0 ± 1.3 fold
TSC22 fold-change, Microarray (n = 3) [1]: 3.4 ± 0.4 fold
c-fos fold-change, Microarray (n = 3) [1]: 12.5 ± 4.0 fold
c-jun fold-change, Microarray (n = 3) [1]: 3.8 ± 0.6 fold
gly96 fold-change, Microarray (n = 3) [1]: 1.7 ± 0.6 fold
ler2/Pip92 fold-change, Microarray (n = 3) [1]: 5.2 ± 1.2 fold
transgelin fold-change, Microarray (n = 3) [1]: 1.4 ± 0.1 fold
β-actin fold-change, Microarray (n = 3) [1]: 2.0 ± 0.5 fold
γ-actin fold-change, Microarray (n = 3) [1]: 2.7 ± 0.3 fold
Time course of induced genes, FMA (cells exposed to GnRH for 3 hours and 6 hours): nearly all of the induced genes return to baseline levels of expression by 3 hours
Nrf2 degree of change on microarray, two different clones [2]: 1.3±0.2 and 1.3±0.1
PRL1 degree of change on microarray, two different clones [2]: 2.0±0.4 and 1.5±0.4
Rgs2 degree of change on microarray, two different clones [2]: 4.0±1.3 and 2.9±1.2
TSC22 degree of change on microarray, two different clones [2]: 3.4±0.4 and 3.3±0.6
